Common to all, as to assay type: cell-based
In data set [1] the test system is A. baumannii R674. Nature of the data set: Chequerboard combination efficacy of adjuvant with antibiotics. Here is the method:
(§1) All the solvents were of reagent grade, which were distilled and dried before its use. All the reagents were purchased from Sigma-Aldrich, Alfa-Aesar, S.D. Fine, Avra and Spectrochem, and were used without further purification. Analytical thin layer chromatography (TLC) was performed on E. Merck TLC plates pre-coated with silica gel 60 F254 and visualization was carried out using UV light and Iodine. Column chromatography was performed on silica gel (60-120 mesh) using different ratio of chloroform and methanol solvent system. Nuclear magnetic resonance spectra were recorded on Bruker (AV-400) 400 MHz spectrometer in deuterated solvents. Mass spectra were obtained using 6538-UHD Accurate mass Q-TOF LC-MS instrument. For optical density measurement during bacteriology experiments, Tecan Infinite Pro series M200 Microplate Reader was used. Bacterial strains, A. baumannii (R674), P. aeruginosa (R590), E. coli (R3336) and K. pneumoniae (R3934) were used for the studies.
(§2) The combination efficacy with antibiotics from different classes and individual antibacterial activity of the synthesized adjuvants was evaluated against the above mentioned MDR and NDM-1 strains of Gram-negative bacteria. All the bacteria were grown in peptone. The bacterial samples were freeze dried and stored at −80° C. 3 μl of these stocks were added to 3 mL of peptone and the culture was grown for 6 h at 37° C. prior to the experiments.
(§3) All synthesized compounds were assayed for their antibacterial activity in combination with antibiotics in a modified chequerboard micro-dilution broth format. Stock solutions were made by serially diluting the compounds using autoclaved millipore water. The bacterial freeze dried stock samples were stored at −80° C. About 3 μL of these stocks were added to about 3 mL of the respective broth and the culture was grown for about 6 h at about 37° C. with prior to the experiments. This 6 h grown culture gives about 10^8 cfu/mL in case of A. baumannii R674, P. aeruginosa R590, E. coli R3336 and K. pneumoniae R3934 which were determined by spread plating method. This 6 h grown culture was diluted to give effective cell concentration of 10^5 cfu/mL, and then used for the chequerboard assay. Adjuvants and antibiotics were serially diluted in two-fold, in sterile millipore water. 25 μL of these serial dilutions of the antibiotics and 25 μL of compounds were added to the wells of 96 well plate followed by the addition of about 150 μL of bacterial solution (˜10^5 cfu/mL). The plates were then incubated at about 37° C., 150 rpm in the incubator and O.D at 600 nm was recorded at 24 h using TECAN (Infinite series, M200 pro) Plate Reader. The wells with similar OD as the media control contained the required concentration of the antibiotic and adjuvant for antibacterial efficacy. The potentiation ability of the adjuvants was determined by calculating the potentiation factor and the Fractional Inhibitory concentration (FIC) index. Fractional Inhibitory Concentration (FIC) is expressed as, FIC=[X]/MICX, where [X] is the lowest inhibitory concentration of antibiotic in the presence of the adjuvant. Whereas FIC index is expressed as, FICI=FICantibiotic+FICadjuvant. The values of FIC index give an insight about the nature of the combination. Potentiation factor which means fold-reduction in the MIC of the antibiotic, when used in combination with the adjuvant was also determined. Potentiation factor=[Minimum inhibitory concentration (MIC) of antibiotic in absence of adjuvant]/[MIC of antibiotic in presence of adjuvant]. […] The combination efficacies of adjuvants with various antibiotics are furnished in Table 1. It should be noted that various other resistant strains of bacteria (Gram-positive and Gram-negative) can be tested with a number of other antibiotics to check the potentiation capacity of the adjuvants.

Data set [2] deals with P. aeruginosa R590. The data set is described as above. As to conditions: P. aeruginosa R590. Here is the method: as §1, §2, §3
For the next data set, the system named is human RBCs. The data set is described as follows: Haemolytic activity. As to conditions: concentration at which 50% of human blood cells are lysed; 1 h at 37° C. Here is the method: Erythrocytes were isolated from freshly drawn, heparanized human blood and re-suspended to 5 vol % in PBS (pH 7.4). In a 96-well microtiter plate, 150 μl of erythrocyte suspension was added to 50 μl of serially diluted compound. Two controls were made, one without compound and other with 50 μl of 1 vol % solution of Triton X-100. The plate was incubated for 1 h at 37° C. The plate was then centrifuged at 3,500 rpm for 5 min, 100 μl of the supernatant from each well was transferred to a fresh 96-well microtiter plate, and A540 was measured. Percentage of hemolysis was determined as (A−A0)/(Atotal−A0)×100, where A is the absorbance of the test well, A0 the absorbance of the negative controls (without compound), and Atotal the absorbance of 100% hemolysis wells (with Triton X-100), all at 540 nm.
Toxicity studies of the compounds were done on freshly drawn human RBCs. Toxicity of the compounds were defined by their HC50 values (Table 2), i.e. the concentration of compound at which 50% of the blood cells are lysed.

The test system of data set [3] is A. baumannii R674. The data set is described as follows: Individual antibacterial activity (MIC) of adjuvants. As to conditions: adjuvant alone; A. baumannii R674. As for the experimental part:
as §2, §3

For data set [4], the system named is P. aeruginosa R590. The data set is described as above. Particulars: adjuvant alone; P. aeruginosa R590. Here is the method:
as §2, §3

Broadly, the HC50 is the concentration giving 50% haemolysis. Low values mean stronger haemolysis, high ones weaker haemolysis. Take `NCCCC[C@H](N)C(=O)NCCCN(CCCNC(=O)[C@@H](N)CCCCN)C(=O)CC(c1ccccc1)c1ccccc1` [Compound 8, N,N-bis-[(6-(^LLys)amido)propyl] 3,3-diphenyl propanamide tetrakis(trifluoroacetate)]: the FICI with A. baumannii R674 [1] (antibiotic Rifampicin) was <0.19; in the data set with P. aeruginosa R590 [2] (antibiotic Rifampicin), <0.14; in the data set with P. aeruginosa R590 [2] (antibiotic Tetracycline) it was <0.375. Besides, the “MIC of antibiotic in presence of adjuvant” value (“MIC of antibiotic” below) is 4 µg/mL in the data set with A. baumannii R674 [1] (antibiotic Rifampicin), >64 µg/mL with A. baumannii R674 [1] (antibiotic Tetracycline), 2 µg/mL in the data set with P. aeruginosa R590 [2] (antibiotic Rifampicin) and 64 µg/mL in the data set with P. aeruginosa R590 [2] (antibiotic Tetracycline). For the same molecule, the Potentiation factor is on record as 16 in the data set with A. baumannii R674 [1] (antibiotic Rifampicin), <2 with A. baumannii R674 [1] (antibiotic Tetracycline), 64 in the data set with P. aeruginosa R590 [2] (antibiotic Rifampicin) and 4 with P. aeruginosa R590 [2] (antibiotic Tetracycline). Moreover, the HC50 in the data set with human RBCs was >1024 µg/mL. Besides, the “MIC against clinical isolates of bacteria” value (shortened to “MIC … of bacteria”) with A. baumannii R674 [3] and in the data set with P. aeruginosa R590 [4] was >512 µg/mL in each case.
As for `NCCCC[C@H](N)C(=O)NCCCN(CCCNC(=O)[C@@H](N)CCCCN)CC(=O)NC1C2CC3CC(C2)CC1C3.O=C(O)C(F)(F)F.O=C(O)C(F)(F)F.O=C(O)C(F)(F)F.O=C(O)C(F)(F)F.O=C(O)C(F)(F)F` (stereo partly shown) [Compound 9], the FICI in the data set on A. baumannii R674 [1] (antibiotic Rifampicin) was <0.14; in the data set on A. baumannii R674 [1] (antibiotic Tetracycline) it was <0.25; in the data set on P. aeruginosa R590 [2] (antibiotic Rifampicin) it was <0.13; with P. aeruginosa R590 [2] (antibiotic Tetracycline) it was <0.19. In addition, the “MIC of antibiotic” value was found to be 1 µg/mL in the data set on A. baumannii R674 [1] (antibiotic Rifampicin), 16 µg/mL in the data set on A. baumannii R674 [1] (antibiotic Tetracycline), 0.5 µg/mL in the data set with P. aeruginosa R590 [2] (antibiotic Rifampicin) and 16 µg/mL in the data set on P. aeruginosa R590 [2] (antibiotic Tetracycline). For the same molecule, the Potentiation factor in the data set with A. baumannii R674 [1] (antibiotic Rifampicin) was determined as 64; in the data set with A. baumannii R674 [1] (antibiotic Tetracycline), 8; in the data set with P. aeruginosa R590 [2] (antibiotic Rifampicin) it was 256; with P. aeruginosa R590 [2] (antibiotic Tetracycline), 16. The HC50 in the data set with human RBCs is >1024 µg/mL. The “MIC … of bacteria” value with A. baumannii R674 [3] and in the data set with P. aeruginosa R590 [4] was >512 µg/mL in each case.
On to `NCCCCCCN(CCCCCCN)C(=O)Cc1cccc2ccccc12` [Compound 10, N,N-bis-[(6-amino)hexyl] naphthyl ethanamide bistrifluoroacetate], for which the FICI in the data set on A. baumannii R674 [1] (antibiotic Rifampicin) is listed as <0.14; in the data set with A. baumannii R674 [1] (antibiotic Tetracycline), <0.375; in the data set with P. aeruginosa R590 [2] (antibiotic Rifampicin), <0.133; in the data set on P. aeruginosa R590 [2] (antibiotic Tetracycline), <0.375. Also, the “MIC of antibiotic” value came to 1 µg/mL with A. baumannii R674 [1] (antibiotic Rifampicin), 16 µg/mL with A. baumannii R674 [1] (antibiotic Tetracycline), 1 µg/mL with P. aeruginosa R590 [2] (antibiotic Rifampicin) and 32 µg/mL in the data set with P. aeruginosa R590 [2] (antibiotic Tetracycline). Also, the Potentiation factor in the data set with A. baumannii R674 [1] (antibiotic Rifampicin) is listed as 64; with A. baumannii R674 [1] (antibiotic Tetracycline), 8; in the data set with P. aeruginosa R590 [2] (antibiotic Rifampicin), 128; in the data set with P. aeruginosa R590 [2] (antibiotic Tetracycline), 8. Moreover, in the data set on human RBCs, the 50% haemolytic concentration (HC50) is >1024 µg/mL. Besides, the “MIC … of bacteria” value in the data set with A. baumannii R674 [3] and in the data set with P. aeruginosa R590 [4] was >512 µg/mL each time.
Take `NCCCCCCN(CCCCCCN)C(=O)CC(c1ccccc1)c1ccccc1.O=C(O)C(F)(F)F.O=C(O)C(F)(F)F` [Compound 11, N,N-bis-[(6-amino)hexyl] 3,3-diphenyl propanamide bistrifluoroacetate]: the FICI in the data set on A. baumannii R674 [1] (antibiotic Rifampicin) is given as 0.1328; in the data set on A. baumannii R674 [1] (antibiotic Tetracycline), 1; with P. aeruginosa R590 [2] (antibiotic Rifampicin), 0.07; with P. aeruginosa R590 [2] (antibiotic Tetracycline), 0.375. Besides, the “MIC of antibiotic” value was 0.5 µg/mL in the data set on A. baumannii R674 [1] (antibiotic Rifampicin), 64 µg/mL in the data set on A. baumannii R674 [1] (antibiotic Tetracycline), 1 µg/mL in the data set with P. aeruginosa R590 [2] (antibiotic Rifampicin) and 32 µg/mL in the data set on P. aeruginosa R590 [2] (antibiotic Tetracycline). Moreover, the figures for the Potentiation factor with A. baumannii R674 [1] (antibiotic Rifampicin), in the data set on A. baumannii R674 [1] (antibiotic Tetracycline) and in the data set on P. aeruginosa R590 [2] (antibiotic Tetracycline) were 128, 2 and 8, respectively. For the same molecule, the concentration for 50% haemolysis (HC50) in the data set with human RBCs is >1024 µg/mL. Moreover, the “MIC … of bacteria” value in the data set on A. baumannii R674 [3] amounted to 128 µg/mL; with P. aeruginosa R590 [4], 256 µg/mL.
Turning to `NCCCCCCN(CCCCCCN)CC(=O)NC1C2CC3CC(C2)CC1C3.O=C(O)C(F)(F)F.O=C(O)C(F)(F)F.O=C(O)C(F)(F)F` (stereo not shown) [Compound 12, N-(adamantan-2-yl)-2-[N′,N′-{bis-(6-amino)hexyl}amino] ethanamide tristrifluoroacetate], the FICI is reported as <0.252 in the data set with A. baumannii R674 [1] (antibiotic Rifampicin), 0.625 in the data set on A. baumannii R674 [1] (antibiotic Tetracycline), 0.251 in the data set on P. aeruginosa R590 [2] (antibiotic Rifampicin) and 0.75 in the data set with P. aeruginosa R590 [2] (antibiotic Tetracycline). For the same molecule, the “MIC of antibiotic” value with A. baumannii R674 [1] (antibiotic Rifampicin) was <0.125 µg/mL; with A. baumannii R674 [1] (antibiotic Tetracycline), 16 µg/mL; in the data set with P. aeruginosa R590 [2] (antibiotic Rifampicin), 0.125 µg/mL; with P. aeruginosa R590 [2] (antibiotic Tetracycline), 64 µg/mL. Besides, the Potentiation factor in the data set on A. baumannii R674 [1] (antibiotic Rifampicin) is on record as >512; in the data set on A. baumannii R674 [1] (antibiotic Tetracycline), 8; in the data set with P. aeruginosa R590 [2] (antibiotic Rifampicin), 1024; in the data set with P. aeruginosa R590 [2] (antibiotic Tetracycline), 4. In addition, the HC50 in the data set with human RBCs is >1024 µg/mL. In addition, the “MIC … of bacteria” value in the data set with A. baumannii R674 [3] and with P. aeruginosa R590 [4] was 64 µg/mL in each case.
